For one series, the system named is INS-1 cells. The series can be described thus: Alamar Blue cell viability / proliferation of INS-1 cells. The format is cell-based, rat. The conditions noted are these: 30 mM glucose, 100 nM, 24, 48 and 72 hours, compared with liraglutide, FIG. 19. How it is done: The cultured INS-1 cells were seeded at a density of 2×10^4 cells/well into 96-well plate in culture medium containing 10% […] bovine serum. After 48 hours, the cells were further incubated for another 24 hours for serum starvation. […] The cells cultured in normal medium being used as a control.
After being incubated for 24, 48 and 72 hours, the cell viability was then determined by Alamar Blue cell viability reagent kit (Invitrogen) in accordance with the manufacturer's instruction.
The cell proliferation ratio (see FIG. 19) was a ratio of the cell viability at multiple time points compared to 0 hour.
In general terms: Alamar Blue is a resazurin reagent that responds to reducing activity.

Another series has as its target T1, GLP-1 receptor (Rattus norvegicus, UniProt P32301).
T1 construct: endogenous in cells; host or cells: rat INS-1 cells
T1 sequence (P32301 22-463): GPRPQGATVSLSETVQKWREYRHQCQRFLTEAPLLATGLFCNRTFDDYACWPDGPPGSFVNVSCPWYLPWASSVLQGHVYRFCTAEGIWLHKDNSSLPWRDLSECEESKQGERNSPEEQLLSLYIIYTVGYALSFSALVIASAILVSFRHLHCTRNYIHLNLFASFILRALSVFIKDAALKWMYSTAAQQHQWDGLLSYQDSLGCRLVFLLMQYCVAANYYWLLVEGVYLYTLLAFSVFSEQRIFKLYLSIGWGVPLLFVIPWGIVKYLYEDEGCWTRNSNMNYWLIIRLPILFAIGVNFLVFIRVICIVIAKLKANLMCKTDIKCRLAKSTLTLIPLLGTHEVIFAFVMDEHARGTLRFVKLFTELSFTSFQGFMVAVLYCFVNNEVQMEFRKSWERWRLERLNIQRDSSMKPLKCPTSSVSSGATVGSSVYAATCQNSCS
The series can be described thus: GLP-1R-mediated cAMP generation in INS-1 cells (cAMP ELISA kit). The format is cell-based. Particulars: 100 nM, 2.5 mM glucose, 20 min, 37° C., FIG. 17. The protocol: Briefly, on day one, 2×10^5 INS-1 cells were plated in each well of a 24-well plate (ThermoFisher Scientific, Waltham, USA) with 500 μL/well culture medium. […] 100 nM liraglutide, as a positive control for cAMP generation, was added to control wells and incubated for 20 min at 37° C. Glucose at lower concentration (2.5 mM) was used as a negative control, and glucose at higher concentration (16 mM) was used as a control for glucose-induced cAMP generation. After 20 minutes of incubation, the medium was aspirated and 200 μl of 0.1N HCl was added to each well. The cells were scraped off from the surface by cell scraper and subjected to centrifugation at 1,000×g for 10 min at 4° C. The supernatant was transferred to new tubes and used for experiment in a 96-well plate. Cyclic AMP levels in the cells were measured at wavelength of 420 nm using SpectraMax M2 microplate reader (Molecular devices, San Jose, USA).

The test system of a further series is caspase-3. Put plainly: Western blot of activated caspase-3 expression in INS-1 cells. It counts as cell-based, rat. Particulars: xx mM glucose, normalized against β-actin, FIGS. 18A/18B. The text has this:
Cleaved caspase-3 is a key executor in the apoptotic process. In this example, the expression of caspase-3 was detected using western blot analysis.
For the immunoblot analysis, proteins were separated using SDS-PAGE, and then transferred onto a polyvinylidene fluoride (PVDF) membrane. The membrane was probed using antibodies against caspase-3 (Cell Signaling Technology, Danvers, USA), followed by horseradish peroxidase-(HRP) conjugated secondary antibodies (Epitomics, Burlingame, USA). The membrane was visualized using an enhanced chemiluminescence system (GE Healthcare Life Sciences, Buckinghamshire, USA). The levels of protein expression were normalized against β-actin expression.

For series [1] the following is noted: in vivo; cited from earlier work.

Starred links: 1 amine or outer side, 2 acyl side, 3 side chain; linkers in the order of their positions; H or OH if unused. Non-standard residues stand in square brackets, D forms with d. Groups on a side chain read outwards from the residue. Primed or numbered codes have the meaning given here. No end group written: not given here. *: point of attachment. alkynylpropionyl = alkynylpropionyl (alkyne-ethyl) group on the N-terminal spacer, reacted by CuAAC with the azide; PEG4′ = PEGylated amino acid with four EG (ethylene glycol) repeats; C16 diacid = O=C(O)CCCCCCCCCCCCCCC(=O)*; γGlu = O=C(O)[C@H](CCC(=O)[*:2])N[*:1]; Palmitoyl = CCCCCCCCCCCCCCCC(=O)*; Azidoacetyl = [N-]=[N+]=NCC(=O)*; Aib = CC(C)(N)C(=O)O

As to “GLP-1-Aib^8-EG4-2E-2FA-C16-acid: Aib-substituted GLP-1 agonist having an azide group coupled via CuAAC to alkyne-EG4-2E-2FA-C16-acid (Example 11) (peptide H[Aib]EGTFTSDVSSYLEGQAAK([γGlu-Azidoacetyl])LEFIAWLVRGRG; chain alkynylpropionyl-[PEG4′]K([γGlu-C16 diacid])[PEG4′]K([γGlu-C16 diacid])-OMe; also: triazole at chain A 20 to a chain's N-terminus)”, the “cell viability (cell proliferation ratio vs 0 hour)” value in the series with INS-1 cells was “significantly improved”. Besides, the “cellular cAMP level” value with GLP-1 receptor was “elicited the expected rise in cellular cAMP level”.

As to “GLP-1-Aib^8-EG4-2E-2FA-C16: Aib-substituted GLP-1 agonist having an azide group coupled via CuAAC to alkyne-EG4-2E-2FA-C16 (Example 10) (peptide H[Aib]EGTFTSDVSSYLEGQAAK([γGlu-Azidoacetyl])LEFIAWLVRGRG; chain alkynylpropionyl-[PEG4′]K([γGlu-Palmitoyl])[PEG4′]K([γGlu-Palmitoyl])-OMe; also: triazole at chain A 20 to a chain's N-terminus)”, the “cell viability (cell proliferation ratio vs 0 hour)” value in the series with INS-1 cells is “significantly improved”. For the same substance, the “cellular cAMP level” value in the series with GLP-1 receptor is listed as “elicited the expected rise in cellular cAMP level”. Moreover, in the series on caspase-3, the “expression level of caspase-3” value is “can effectively reduce the expression level of caspase-3”.

For albiglutide, the serum half-life in series [1] is 96 to 170 h.

Values taken from patent US10993986B2, “Pharmaceutical constructs with enhanced binding affinity with albumin” (Immunwork Inc., priority 2017, dated 2021).
